{"source": "patent US10344002B2", "about": "“Compositions and methods for treating metabolic disorders” (NuSirt Sciences, Inc., priority 2016, dated 2019)", "key": {"AMPK [1]": {"tested_on": "AMPK", "assay": "Western blot, phosphorylated/total AMPK in 3T3L1 adipocytes", "type": "cell-based", "details": "48 hours; for ratio of phosphorylated/total AMPK (FIG. 5): control approximately 1.52", "experimental": "3T3L1 adipocytes were seeded with 200,000 cells per well on 6-well tissue culture plates in Dulbecco's modified eagle's medium (DMEM) containing 10% fetal bovine serum (FBS) and antibiotics (1% penicillin-streptomycin) at 37° C. in 5% CO2. After reaching confluency (3 days), cells were induced to differentiate with a standard differentiation media (DM2-L1, Zen-Bio Inc., NC) for 3 days, then cells were maintained in DMEM (10% FBS, 1% penicillin-streptomycin) for another 11 days to induce lipid accumulation. Cells were then treated with indicated concentration of Compound 2 for 48 hours.\n(§1) Compound 2 was dissolved in 100% DMSO to a stock concentration of 100 mM. This stock was further diluted to indicated concentrations in DMEM media.\n(§2) Western blots: Phospho-AMPK, AMPK, Phospho-ACC, ACC antibodies were obtained from Cell Signaling (Danvers, Mass.). Sir2 antibody was obtained from MyBiosource (San Diego, Calif.). Protein levels of cell extracts were measured by BCA kit (Thermo Scientific, Pittsburgh, Pa.). For Western blot, 10-50 μg protein was resolved on 4-15% gradient polyacrylaminde gels (Criterion precast gel, Bio-Rad Laboratories, Hercules, Calif.), transferred to either PVDF or nitrocellulose membranes, incubated in blocking buffer (3% BSA or 5% non-fat dry milk in TBS) and then incubated with primary antibody (1:1000 dilution), washed and incubated with horseradish peroxidase- or fluorescence-conjugated secondary antibody (1:10000 dilution). Visualization was conducted using BioRad ChemiDoc instrumentation and software (Bio-Rad Laboratories, Hercules, Calif.) and band intensity was assessed using Image Lab 4.0 with correction for background and loading controls."}, "C. elegans": {"tested_on": "C. elegans", "assay": "Lipid accumulation (Oil Red Staining) in C. elegans", "type": "in vivo", "details": "for lipid accumulation, fold change of control (FIG. 12): 3 days, absorbance normalized to worm number", "experimental": "C. elegans culture: Synchronized L1 wild-type worms were transferred to NGM agar plates with the following treatments until adulthood (3 days): 1. control NGM plates, 2. NGM plate with 10 nM Compound 2 added to E. coli suspension, 3. NGM plate with 100 nM Compound 2 added to E. coli suspension.\nLipid accumulation (Oil Red Staining): Worms were washed off the plate with 2×5 ml PBS and collected in centrifuge tubes. The tubes were centrifuged at 1000 g for 30 seconds, then the supernatant was removed and the worm pellet was washed again with 5 ml PBS. Then the supernatant was discarded except approximately 400 ul, to which 200 ul of 10% paraformaldehyde was added and then gently rocked for 60 minutes at room temperature. To remove the paraformaldehyde, worms were centrifuged at 1500 g for 30 sec, then washed 1× with 5 ml PBS, centrifuged and supernatant removed except 400 ul, to which 600 ul of 100% isopropanol was added and mixed by inverting the tube and incubated for 15 minutes at room temperature. After centrifugation, the isopropanol was removed, then 1 ml of 60% filtered OilRed (4 vol ddH2O and 6 vol of OilRed stock (OilRed stock: dilute 0.35 g OilRed O (Sigma Cat #0-0625, FW 408.5) in 100 ml 100% isopropanol, stirred overnight, then filtered (0.2 um) and stored at room temperature), let stand for 15 to 20 min and filter with 0.2 um) was added. Worms were rotated on shaker overnight at room temperature and protected from light. Next day, the worms were centrifuged at 1200 g for 30 seconds, the dye was removed, and worms were washed 4 times with ddH2O. At last washing step, 2 ml of ddH2O was added and worms were counted under microscope in 3×20 ul drops. The worm number was multiplied by 100 to calculate the total worm number for normalization of the absorbance data. Then worm solution was centrifuged again, supernatant removed and 300 ul of 100% isopropanol was added to elute the OilRed. 100 ul aliquots of OilRed-isopropanol in transferred to 96-well plate and the absorbance was measured at 500 nm."}, "3T3L1 adipocytes": {"tested_on": "3T3L1 adipocytes", "assay": "Lipid accumulation (Oil Red Staining) in 3T3L1 adipocytes", "type": "cell-based", "details": "72 hours; for Oil Red absorbance (FIG. 11): control approximately 0.66", "experimental": "Cell Culture: 3T3L1 adipocytes were seeded with 80,000 cells per well on 24-well tissue culture plates in high glucose (25 mM) DMEM containing 10% FBS and antibiotics. After reaching confluency (3 days), cells were induced to differentiate with a standard differentiation media (DM2-L1, Zen-Bio Inc., NC) for 3 days, then cells were maintained in DMEM (10% FBS, 1% penicillin-streptomycin) for another 8 days to induce lipid accumulation. Cells were then treated with indicated concentration of Compound 2 for 72 hours.\nas §1\nLipid accumulation (Oil Red Staining): 3T3L1 adipocytes were seeded and treated as described above. After 72 hours of treatment with Compound 2, lipid accumulation in adipocytes was measured via Oil Red Staining. Cells were washed with phosphate buffered saline (PBS) once, then cells were fixated with 10% formalin for 1 hour. After removal of the formalin, cells were washed with ddH2O twice, then washed with 60% isopropanol. Cells were dried completely. Cells were stained with Oil Red working solution (˜5 mM) for 25 minutes, then immediately washed with ddH2O four times, then dried completely again. Oil Red dye was eluted with 100% isopropanol and absorbance was read at 500 nm. Unstained cells plus isopropanol was used as a blank and subtracted from all readings. Data are represented as mean±SEM for each treatment group."}, "AMPK [2]": {"tested_on": "AMPK", "assay": "Western blot, P-AMPK/AMPK in C2C12 muscle cells", "type": "cell-based", "details": "4 hours; for ratio of P-AMPK/AMPK (FIG. 6A): control approximately 0.75", "experimental": "Cell Culture: C2C12 muscle cells were seeded with 400,000 cells per well on 6-well tissue culture plates in Dulbecco's modified eagle's medium (DMEM) containing 10% fetal bovine serum (FBS) and antibiotics (1% penicillin-streptomycin) at 37° C. in 5% CO2. After reaching confluency (24 hours), cells were induced to differentiate with DMEM containing 2% Horse Serum for 5 to 6 days until myotubes were fully formed. Cells were then treated with indicated concentration of Compound 2 for 4 and 24 hours.\nas §1, §2"}}}
{"compound": "CC(C)C[C@@H]1NC(N=C(N)N)=NC1=O", "note": "[Compound 2]", "values": [{"measurement": "ratio of phosphorylated/total AMPK (FIG. 5)", "setting": "AMPK [1]; 10 nM", "result": "approximately 1.5"}, {"measurement": "ratio of phosphorylated/total AMPK (FIG. 5)", "setting": "AMPK [1]; 100 nM", "result": "approximately 2.0"}, {"measurement": "increase in the ratio of phosphorylated to total AMPK protein expression", "setting": "AMPK [1]; 100 nM, p=0.0004", "result": 35, "unit": "%"}, {"measurement": "lipid accumulation, fold change of control (FIG. 12)", "setting": "C. elegans; 10 nM", "result": "approximately 0.45 fold change"}, {"measurement": "lipid accumulation, microscopic images (FIG. 13B)", "setting": "C. elegans; 100 nM", "result": "significant reduction"}, {"measurement": "lipid accumulation, fold change of control (FIG. 12)", "setting": "C. elegans; 100 nM", "result": "approximately 0.35 fold change"}, {"measurement": "reduction in lipid accumulation", "setting": "C. elegans; 100 nM, L1 stage to adulthood (3 days), p<0.05", "result": 60, "unit": "%"}, {"measurement": "Oil Red absorbance (FIG. 11)", "setting": "3T3L1 adipocytes; 1 nM, 500 nm", "result": "approximately 0.57"}, {"measurement": "Oil Red absorbance (FIG. 11)", "setting": "3T3L1 adipocytes; 10 nM, 500 nm", "result": "approximately 0.58"}, {"measurement": "Oil Red absorbance (FIG. 11)", "setting": "3T3L1 adipocytes; 50 nM, 500 nm", "result": "approximately 0.53"}, {"measurement": "Oil Red absorbance (FIG. 11)", "setting": "3T3L1 adipocytes; 100 nM, 500 nm", "result": "approximately 0.54"}, {"measurement": "Oil Red absorbance (FIG. 11)", "setting": "3T3L1 adipocytes; 200 nM, 500 nm", "result": "approximately 0.51"}, {"measurement": "Oil Red absorbance (FIG. 11)", "setting": "3T3L1 adipocytes; 350 nM, 500 nm", "result": "approximately 0.55"}, {"measurement": "Oil Red absorbance (FIG. 11)", "setting": "3T3L1 adipocytes; 500 nM", "result": "approximately 0.68"}, {"measurement": "reduction in lipid accumulation (plateau effect)", "setting": "3T3L1 adipocytes; 50 to 350 nM, p<0.05", "result": "up to 23%"}, {"measurement": "lipid reducing effect", "setting": "3T3L1 adipocytes; higher concentration (500 nM)", "result": "lost"}, {"measurement": "effect on the ratio of P-AMPK/AMPK", "setting": "AMPK [2]; 10 nM", "result": "no effect"}, {"measurement": "ratio of P-AMPK/AMPK (FIG. 6A)", "setting": "AMPK [2]; 10 nM", "result": "approximately 0.65"}, {"measurement": "ratio of P-AMPK/AMPK (FIG. 6A)", "setting": "AMPK [2]; 100 nM", "result": "approximately 1.35"}, {"measurement": "increase in the ratio of P-AMPK/AMPK", "setting": "AMPK [2]; 100 nM, p=0.03", "result": 78, "unit": "%"}]}
